Measured values published in US20250213587A1, “ITK INHIBITORS FOR INCREASING TH1 CELL ACTIVITY” (Corvus Pharmaceuticals, Inc., priority 2022, published 2025).

How the values were obtained:
Lck = Lck (Homo sapiens, UniProt P06239); experiment: Human kinome profiling at 1.0 μM, Lck; type: biochemical; settings: read-out: percent control, Lck
Fyn = Fyn (Homo sapiens, UniProt P06241); experiment: Human kinome profiling at 1.0 μM, Fyn; type: biochemical; settings: read-out: percent control, Fyn
ZAP-70 phosphorylation = ZAP-70 phosphorylation in Jurkat cells; type: cell-based, human; settings: anti-CD3
Experimental: Jurkat human acute T cell leukemia cell line (ATCC, TIB-152) was cultured in RPMI 1640 medium supplemented with Penicillin-Streptomycin (Gibco) and 10% fetal bovine serum (FBS) at 37° C. and 5% CO2. […] The cell pellet was resuspended in NP40 lysis buffer (Invitrogen) containing protease and phosphatase inhibitors cocktail (Cell Signaling Technology), incubated for 30 minutes on ice, and centrifuged at 15, 000×g for 10 minutes. The lysate supernatant from each condition containing 50 μg of total protein was resolved on an 8% Bis-Tris gel (Invitrogen) under reducing condition and transferred onto a nitrocellulose membrane (Invitrogen) using an iBlot2 gel transfer device. Unless specified otherwise, all reagents described above were purchased from Thermo Fisher Scientific. Membranes were blocked for 1 hour at room temperature and incubated overnight at 4° C. with primary antibodies (1:1000 dilution) in Odyssey blocking buffer (LI-COR) with 0.2% Tween 20. Membranes were washed 4 times (5 min each) in Tris-buffered saline, 0.10% Tween 20 and incubated with IRDye 800CW Anti-Rabbit IgG and IRDye 700CW Anti-Mouse IgG (LI-COR) secondary antibodies (1:20,000 dilution) for 1 hour at room temperature. After washes, membranes were imaged in the LI-COR Odyssey® Fc Imaging System. […]

ITK [1] = target: T1, ITK (Canis lupus familiaris, UniProt A0A8I3MMK2); experiment: ITK occupancy in dog PBMC; type: in vivo; settings: po, single 5 mg/kg PO
T1 construct: from tissue; host or cells: PBMC of dosed dogs
Experimental: The active site occupancy of ITK by a covalent inhibitor was measured using an irreversibly bound biotinylated probe in an immuno-electrochemiluminescence assay. The binding of an inhibitor and the probe to the ATP binding site is mutually exclusive. In lysates of immune cell lines or immune cells collected from treated animals, the biotinylated probe reacts with free (uninhibited) ITK and is subsequently captured on a streptavidin-coated surface and quantified. The free ITK in each sample is normalized by dividing it by either the lysate protein concentration (BCA protein assay, Pierce) or cell count of the sample. Normalized free ITK values are generated for samples collected prior to and after treatment from which occupancy was calculated using equation 7. Single cell suspensions of Jurkat cells, mouse splenocytes, dog PBMC or purified normal human T cells were prepared. Cell lysis was performed using a buffer containing CelLytic M (Sigma Aldrich) supplemented with protease and phosphatase inhibitors (Pierce). The cell pellet resuspended in lysis buffer was incubated at room temperature for 30 minutes when the lysate was clarified by centrifugation at 20,000×g for 5 minutes at 4° C. […] Read buffer (Mesoscale Diagnostics) diluted two-fold with water was dispensed into the wells of the plate which was read immediately using an MESO Quickplex SQ 120 instrument.

[2] = test system: CD4+ T cells, Sézary cells; experiment: Cytokine production by CD4+ cells and Sézary cells stimulated with anti-CD3/28/2; type: cell-based, human
From the text: This is significant because cytokines secreted by Th2 cells are involved in inflammation, allergy and autoimmunity. […] There was no effect on Th1-dependent IFNg, except at high concentrations. Inhibition of Th2 cells blocks production of various inflammatory cytokines, including IL-4, IL-5, IL-9, IL-13, and IL17a.

[3] = test system: MRL lymphoproliferation strain mice; experiment: MRL/lpr lupus model; settings: mouse, in vivo
ITK [4] = target: T2, ITK (Homo sapiens, UniProt Q08881); experiment: Human kinome profiling at 1.0 μM, ITK; type: biochemical; set-up: purchased Invitrogen
T2 sequence (Q08881 1-620): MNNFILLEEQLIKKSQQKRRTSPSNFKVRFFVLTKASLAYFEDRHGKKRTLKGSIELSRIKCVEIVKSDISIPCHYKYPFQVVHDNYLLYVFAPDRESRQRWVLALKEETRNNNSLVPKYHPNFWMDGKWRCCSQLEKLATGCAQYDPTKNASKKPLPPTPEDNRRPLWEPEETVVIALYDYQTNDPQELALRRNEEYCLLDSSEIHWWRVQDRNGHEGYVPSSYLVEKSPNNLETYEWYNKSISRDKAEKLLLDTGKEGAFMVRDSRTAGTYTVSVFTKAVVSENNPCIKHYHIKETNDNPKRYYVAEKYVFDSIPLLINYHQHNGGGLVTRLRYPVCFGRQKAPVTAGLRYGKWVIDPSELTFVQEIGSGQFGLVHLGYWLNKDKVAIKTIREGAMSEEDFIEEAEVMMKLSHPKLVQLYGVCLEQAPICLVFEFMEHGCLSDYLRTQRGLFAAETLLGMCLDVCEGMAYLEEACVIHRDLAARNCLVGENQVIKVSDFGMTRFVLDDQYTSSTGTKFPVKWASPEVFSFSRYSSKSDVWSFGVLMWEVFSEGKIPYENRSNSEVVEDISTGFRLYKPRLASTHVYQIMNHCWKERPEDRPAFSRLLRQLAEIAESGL

T1 sequence (A0A8I3MMK2 1-620): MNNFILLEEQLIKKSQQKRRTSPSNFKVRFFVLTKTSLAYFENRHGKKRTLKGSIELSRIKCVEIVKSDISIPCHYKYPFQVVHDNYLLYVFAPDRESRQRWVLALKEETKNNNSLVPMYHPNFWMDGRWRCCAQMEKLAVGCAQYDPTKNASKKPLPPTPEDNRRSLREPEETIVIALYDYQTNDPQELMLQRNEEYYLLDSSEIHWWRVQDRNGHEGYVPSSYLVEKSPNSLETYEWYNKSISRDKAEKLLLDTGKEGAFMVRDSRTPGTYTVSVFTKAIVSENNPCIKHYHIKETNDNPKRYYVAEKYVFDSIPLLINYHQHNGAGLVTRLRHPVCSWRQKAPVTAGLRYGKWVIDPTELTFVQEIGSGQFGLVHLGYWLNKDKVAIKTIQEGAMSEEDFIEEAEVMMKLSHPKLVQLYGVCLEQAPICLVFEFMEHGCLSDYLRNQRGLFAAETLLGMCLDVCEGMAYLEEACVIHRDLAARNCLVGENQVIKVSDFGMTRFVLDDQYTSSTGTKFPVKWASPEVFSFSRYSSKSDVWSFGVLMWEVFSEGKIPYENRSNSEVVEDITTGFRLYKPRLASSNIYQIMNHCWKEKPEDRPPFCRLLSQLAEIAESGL
Fyn, sequence (P06241 whole entry): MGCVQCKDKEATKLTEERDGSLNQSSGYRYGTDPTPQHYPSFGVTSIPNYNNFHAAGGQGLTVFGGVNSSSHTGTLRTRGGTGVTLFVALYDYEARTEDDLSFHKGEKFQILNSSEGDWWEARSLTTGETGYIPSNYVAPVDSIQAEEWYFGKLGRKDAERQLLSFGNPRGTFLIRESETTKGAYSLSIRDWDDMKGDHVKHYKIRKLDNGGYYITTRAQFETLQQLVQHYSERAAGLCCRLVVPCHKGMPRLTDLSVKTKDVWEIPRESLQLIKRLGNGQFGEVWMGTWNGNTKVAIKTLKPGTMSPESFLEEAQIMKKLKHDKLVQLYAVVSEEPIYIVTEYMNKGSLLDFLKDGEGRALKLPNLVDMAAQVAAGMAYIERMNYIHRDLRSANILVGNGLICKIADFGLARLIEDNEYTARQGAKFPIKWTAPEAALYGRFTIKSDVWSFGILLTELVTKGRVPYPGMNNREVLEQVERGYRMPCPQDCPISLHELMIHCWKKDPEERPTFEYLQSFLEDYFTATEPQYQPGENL
Lck, sequence (P06239 whole entry): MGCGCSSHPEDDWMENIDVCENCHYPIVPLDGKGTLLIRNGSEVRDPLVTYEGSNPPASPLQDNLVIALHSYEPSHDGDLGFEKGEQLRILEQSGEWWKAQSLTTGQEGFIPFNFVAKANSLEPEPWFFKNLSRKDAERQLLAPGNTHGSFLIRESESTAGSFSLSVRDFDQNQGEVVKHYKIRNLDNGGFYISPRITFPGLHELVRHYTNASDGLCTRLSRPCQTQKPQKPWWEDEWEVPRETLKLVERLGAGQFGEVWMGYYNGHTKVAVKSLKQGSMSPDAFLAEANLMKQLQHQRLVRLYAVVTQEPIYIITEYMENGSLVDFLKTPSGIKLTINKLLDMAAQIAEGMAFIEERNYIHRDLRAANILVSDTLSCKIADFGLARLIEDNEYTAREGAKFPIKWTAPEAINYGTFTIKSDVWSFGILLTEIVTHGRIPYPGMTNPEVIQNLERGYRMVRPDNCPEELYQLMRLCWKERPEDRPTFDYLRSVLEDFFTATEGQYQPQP

C=CC(=O)N1CCCN(C(=O)c2cc(Sc3cnc(NC(=O)C4CC4)s3)c(C)cc2OC)C[C@H]1C [CPI-818] was tested, and the remaining activity at 1 µM (Lck) was 89%, the remaining activity at 1 µM (Fyn) was 99% and the “phosphorylation of ZAP-70” value (ZAP-70 phosphorylation) was “but not ZAP-70”. The receptor occupancy at 5 mg/kg (ITK [1]; 2 h) was 91%, the receptor occupancy at 5 mg/kg (ITK [1]; 24 h) was 31% and the “Interferon gamma (IFNg) production” value [2] was “only inhibited at high concentrations”. The Th2 cytokine production ([2]; CD4+ T cells) was “dose-dependent inhibition of Th2 cytokine”, the lymphadenopathy [3] was “inhibits” and the proteinuria [3] was “inhibits”. For the same compound, the inhibition at 1 µM (ITK [4]) was > 95%.
